Experimental data: ChEMBL document CHEMBL1687845, “Carotenoid-related alteration of cell membrane fluidity impacts Staphylococcus aureus susceptibility to host defense peptides” (2011)
≈ marks a conversion by molar mass, not a printed value.

Tests used:
Staphylococcus aureus [1] = assay: Antibacterial activity against wild type methicillin-susceptible Staphylococcus aureus SA144 assessed as bacterial survival at 5 ug/ml after 2 hrs; assay type: functional; conditions: SA144, 2 h
Staphylococcus aureus [2] = assay: Antibacterial activity against wild type methicillin-susceptible Staphylococcus aureus SA144 assessed as bacterial survival at 2.5 ug/ml after 2 hrs; assay type: functional; conditions: SA144, 2 h
Staphylococcus aureus [3] = assay: Antibacterial activity against methicillin-susceptible Staphylococcus aureus SA145 harboring crtM deletion mutant assessed as bacterial survival at 5 ug/ml after 2 hrs; assay type: functional; conditions: SA145, 2 h
Staphylococcus aureus [4] = assay: Antibacterial activity against methicillin-susceptible Staphylococcus aureus SA147 harboring deltacrtM-pDCerm::crtMN assessed as bacterial survival at 5 ug/ml after 2 hrs; assay type: functional; conditions: SA147, 2 h
Staphylococcus aureus [5] = assay: Antibacterial activity against methicillin-susceptible Staphylococcus aureus SA147 harboring deltacrtM-pDCerm::crtMN assessed as bacterial survival at 2.5 ug/ml after 2 hrs; assay type: functional; conditions: SA147, 2 h
Staphylococcus aureus [6] = assay: Antibacterial activity against methicillin-susceptible Staphylococcus aureus SA145 harboring crtM deletion mutant assessed as bacterial survival at 2.5 ug/ml after 2 hrs; assay type: functional; conditions: SA145, 2 h
Staphylococcus aureus [7] = assay: Antibacterial activity against methicillin-susceptible Staphylococcus aureus SA147 harboring deltacrtM-pDCerm::crtMN assessed as bacterial survival at 1.25 ug/ml after 2 hrs; assay type: functional; conditions: SA147, 2 h
Staphylococcus aureus [8] = assay: Ratio of MIC for methicillin-susceptible Staphylococcus aureus SA147 harboring deltacrtM-pDCerm::crtMN to MIC for wild type methicillin-susceptible Staphylococcus aureus SA144; assay type: functional
Staphylococcus aureus [9] = assay: Antibacterial activity against wild type methicillin-susceptible Staphylococcus aureus SA144 by Etest; assay type: functional
Staphylococcus aureus [10] = assay: Antibacterial activity against wild type methicillin-susceptible Staphylococcus aureus SA144 assessed as bacterial survival at 1.25 ug/ml after 2 hrs; assay type: functional; conditions: SA144, 2 h
Staphylococcus aureus [11] = assay: Antibacterial activity against methicillin-susceptible Staphylococcus aureus SA145 harboring crtM deletion mutant assessed as bacterial survival at 0.625 ug/ml after 2 hrs; assay type: functional; conditions: SA145, 2 h
Staphylococcus aureus [12] = assay: Antibacterial activity against methicillin-susceptible Staphylococcus aureus SA145 harboring crtM deletion mutant by Etest; assay type: functional
Staphylococcus aureus [13] = assay: Antibacterial activity against methicillin-susceptible Staphylococcus aureus SA147 harboring deltacrtM-pDCerm::crtMN assessed as bacterial survival at 0.625 ug/ml after 2 hrs; assay type: functional; conditions: SA147, 2 h
Staphylococcus aureus [14] = assay: Antibacterial activity against wild type methicillin-susceptible Staphylococcus aureus SA144 assessed as bacterial survival at 0.625 ug/ml after 2 hrs; assay type: functional; conditions: SA144, 2 h
Staphylococcus aureus [15] = assay: Antibacterial activity against methicillin-susceptible Staphylococcus aureus SA146 harboring deltacrtM-pDCerm by Etest; assay type: functional
Staphylococcus aureus [16] = assay: Antibacterial activity against methicillin-susceptible Staphylococcus aureus SA147 harboring deltacrtM-pDCerm::crtMN by Etest; assay type: functional
Staphylococcus aureus [17] = assay: Antibacterial activity against methicillin-susceptible Staphylococcus aureus SA145 harboring crtM deletion mutant assessed as bacterial survival at 1.25 ug/ml after 2 hrs; assay type: functional; conditions: SA145, 2 h
Staphylococcus aureus [18] = assay: Antibacterial activity against wild type methicillin-susceptible Staphylococcus aureus SA144 assessed as bacterial survival at 40 ug/ml after 2 hrs; assay type: functional, organism-based
Staphylococcus aureus [19] = assay: Antibacterial activity against methicillin-susceptible Staphylococcus aureus SA145 harboring crtM deletion mutant assessed as bacterial survival at 40 ug/ml after 2 hrs; assay type: functional, organism-based
Staphylococcus aureus [20] = assay: Antibacterial activity against wild type methicillin-susceptible Staphylococcus aureus SA144 assessed as bacterial survival at 80 ug/ml after 2 hrs; assay type: functional, organism-based
Staphylococcus aureus [21] = assay: Antibacterial activity against methicillin-susceptible Staphylococcus aureus SA145 harboring crtM deletion mutant assessed as bacterial survival at 80 ug/ml after 2 hrs; assay type: functional, organism-based
Staphylococcus aureus [22] = assay: Antibacterial activity against methicillin-susceptible Staphylococcus aureus SA147 harboring deltacrtM-pDCerm::crtMN assessed as bacterial survival at 80 ug/ml after 2 hrs; assay type: functional, organism-based
Staphylococcus aureus [23] = assay: Antibacterial activity against methicillin-susceptible Staphylococcus aureus SA147 harboring deltacrtM-pDCerm::crtMN assessed as bacterial survival at 40 ug/ml after 2 hrs; assay type: functional, organism-based

H-ALYKKFKKKLLKSLKRLG-OH was tested, and the survival at 5 µg/mL (Staphylococcus aureus [1]) was 11%, the survival at 2.5 µg/mL (Staphylococcus aureus [2]) was 23% and the survival at 5 µg/mL (Staphylococcus aureus [3]) was 13%. For the same molecule, the survival at 5 µg/mL (Staphylococcus aureus [4]) was 23%, the survival at 2.5 µg/mL (Staphylococcus aureus [5]) was 55% and the survival at 2.5 µg/mL (Staphylococcus aureus [6]) was 18%.

CCCCCCCCCC(=O)N[C@@H](Cc1c[nH]c2ccccc12)C(=O)N[C@H](CC(N)=O)C(=O)N[C@@H](CC(=O)O)C(=O)N[C@@H]1C(=O)NCC(=O)N[C@@H](CCCN)C(=O)N[C@@H](CC(=O)O)C(=O)N[C@H](C)C(=O)N[C@@H](CC(=O)O)C(=O)NCC(=O)N[C@H](CO)C(=O)N[C@@H]([C@H](C)CC(=O)O)C(=O)N[C@@H](CC(=O)c2ccccc2N)C(=O)O[C@@H]1C was tested, and the survival at 1.25 µg/mL (Staphylococcus aureus [7]) was 49%, the Ratio (Staphylococcus aureus [8]) was 2 and the MIC (Staphylococcus aureus [9]) was 0.75 µg/mL (≈ 0.463 µM). For the same molecule, the survival at 1.25 µg/mL (Staphylococcus aureus [10]) was 12%, the survival at 0.625 µg/mL (Staphylococcus aureus [11]) was 24% and the MIC (Staphylococcus aureus [12]) was 0.75 µg/mL (≈ 0.463 µM). It also gave a survival at 0.625 µg/mL (Staphylococcus aureus [13]) of 55%, a survival at 0.625 µg/mL (Staphylococcus aureus [14]) of 18% and an MIC (Staphylococcus aureus [15]) of 0.75 µg/mL (≈ 0.463 µM). It also gave an MIC (Staphylococcus aureus [16]) of 1.5 µg/mL (≈ 0.926 µM) and a survival at 1.25 µg/mL (Staphylococcus aureus [17]) of 21%.

For POLYMYXIN B, the Survival (Staphylococcus aureus [18]) was 29%, the Survival (Staphylococcus aureus [19]) was 23% and the Survival (Staphylococcus aureus [20]) was 13%. The Survival (Staphylococcus aureus [21]) was 14%, the Survival (Staphylococcus aureus [22]) was 26% and the Survival (Staphylococcus aureus [23]) was 25%.
